Where two headings read alike, the source gives them in different places.
Columns and labels:
NCI-60 cell line panel = test: NCI-60 cell line screen growth inhibition (sulforhodamine B), whole panel; assay type: cell-based, human; conditions: compared among 1-3
From the text: In principle the phenotype elicited by any single small molecule can be due to either an on- or off-target effect; however, if multiple chemically distinct small molecules designed to target a single gene all elicit the same phenotype, one’s confidence in their on-target mechanism becomes greater. As such, we sought to apply our knowledge of the comparative potencies of 1-3 to test whether the simplest phenotype caused by EP300/CREBBP inhibitors – cell death – was consistent with their effects on histone acetylation and a putative on-target mechanism. […] Subsequently, the COMPARE algorithm was used to compare the patterns of growth inhibition elicited by 1-3 in the NCI-60 assay against the >150,000 compounds analyzed in the screen to date.[29] […] Finally, the specificity of CPI-1612 (3) was directly assessed using quantitative LC-MS analysis of histone acetylation in treated cells,[33] focusing on four abundant histone acetylation markers whose writers are well-characterized: H3K9Ac (written by KAT2A/B), H3K14Ac (KAT7), H3K18Ac (EP300/CREBBP), and H3K23Ac (KAT6A/B; Fig. 3e).[26] […]

MCF10A PANK4 KO+EV cells = test: Sulforhodamine B cell growth assay, MCF10A PANK4 KO+EV; assay type: cell-based, human
[1] = tested on: MCF10A PANK4 KO+PANK4 WT cells; test: Sulforhodamine B cell growth assay, MCF10A PANK4 KO+PANK4 WT; assay type: cell-based, human
A549/ATCC = test: NCI-60 growth inhibition (sulforhodamine B); assay type: cell-based, human; conditions: A549/ATCC (Non-Small Cell Lung Cancer), negative log of Molar conc., LCONC -8
SF-268 = test: NCI-60 growth inhibition (sulforhodamine B); assay type: cell-based, human
OVCAR-4 = test: NCI-60 growth inhibition (sulforhodamine B); assay type: cell-based, human; conditions: OVCAR-4 (Ovarian Cancer), negative log of Molar conc., LCONC -8
A498 = test: NCI-60 growth inhibition (sulforhodamine B); assay type: cell-based; conditions: Homo sapiens, A498, Renal Cancer, negative log of Molar value, LCONC -8, EXPID 2301NS84
CAKI-1 = test: NCI-60 growth inhibition (sulforhodamine B); assay type: cell-based; conditions: Homo sapiens, CAKI-1, Renal Cancer, negative log of Molar value, LCONC -8, EXPID 2301NS84
BT-549 = test: NCI-60 growth inhibition (sulforhodamine B); assay type: cell-based; conditions: Homo sapiens, BT-549, Breast Cancer, negative log of Molar value, LCONC -8, EXPID 2301NS84
[2] = Homo sapiens, read-out: GI50 NLOGVALUE (converted)

With `C[C@H](CN[C@@H](C(=O)Nc1ccc(-c2cnn(C)c2)cn1)c1ccccc1)c1ccc(C#N)cc1` [CPI-1612] the “inhibition of cell growth, NCI-60 screen” value (NCI-60 cell line panel) was “most potent inhibitor of cell growth”, the IC50 (MCF10A PANK4 KO+EV cells; Homo sapiens, MCF-10A KO+EV, 72 h) was 0.084 µM and the “growth inhibition activity at 1 μM” value (MCF10A PANK4 KO+EV cells; PANK4 KO+EV cells, 1 μM) was “remains active”. For the same compound, the IC50 ([1]; Homo sapiens, MCF-10A KO+PANK4 WT, 72 h) was 0.0089 µM, the “growth inhibition activity at 1 μM” value ([1]; PANK4 KO+WT cells, 1 μM) was “remains active” and the “TGI NLOGVALUE” (A549/ATCC) was 4. It also gave a GI50 (A549/ATCC; [2]) of 3.31 µM, an IC50 (A549/ATCC; Homo sapiens, read-out: IC50 NLOGVALUE (converted)) of 19.1 µM and a GI50 (SF-268; Homo sapiens, SF-268, read-out: GI50 AVGDATA (converted)) of 0.676 µM. For the same compound, the GI50 (SF-268; Homo sapiens, SF-268 (CNS Cancer), negative log of Molar conc., LCONC -8, read-out: GI50 NLOGVALUE (converted)) was 0.692 µM, the IC50 (SF-268; Homo sapiens, SF-268 (CNS Cancer), negative log of Molar conc., LCONC -8, read-out: IC50 NLOGVALUE (converted)) was 79.4 µM and the CC50 (SF-268; Homo sapiens, SF-268 (CNS Cancer), negative log of Molar conc., LCONC -8, read-out: LC50 NLOGVALUE) was > 100 µM. The “TGI NLOGVALUE” (SF-268; SF-268 (CNS Cancer), negative log of Molar conc., LCONC -8) was 4, the GI50 (OVCAR-4; [2]) was 2.04 µM and the IC50 (OVCAR-4; Homo sapiens, read-out: IC50 NLOGVALUE) was > 100 µM. For the same compound, the CC50 (OVCAR-4; Homo sapiens, read-out: LC50 NLOGVALUE) was > 100 µM, the “TGI NLOGVALUE” (OVCAR-4) was 4 and the GI50 (A498; read-out: GI50 NLOGVALUE (converted)) was 0.0295 µM. For the same compound, the IC50 (A498; read-out: IC50 NLOGVALUE) was > 100 µM, the CC50 (A498; read-out: LC50 NLOGVALUE) was > 100 µM and the GI50 (CAKI-1; read-out: GI50 NLOGVALUE) was < 0.01 µM. The CC50 (CAKI-1; read-out: LC50 NLOGVALUE) was > 100 µM, the GI50 (BT-549; read-out: GI50 NLOGVALUE) was > 100 µM and the IC50 (BT-549; read-out: IC50 NLOGVALUE) was > 100 µM. The CC50 (BT-549; read-out: LC50 NLOGVALUE) was > 100 µM.
